Among the data in PubChem BioAssay (NCI) are TGI values, retold here.

Among the test systems are A549 NSCLC; HCT-116 colon; HCT-15 colon; HT29 colon; KM12 colon; LXFL 529 NSCLC; M14 melanoma; NCI-H522 lung; OVCAR-4 ovarian; OVCAR-8 ovarian; RXF 393 renal; SF-295 CNS; SK-MEL-5 melanoma; SN12C renal; SNB-75 CNS; SW-620 colon; RPMI-8226 leukemia; DU-145 prostate; PC-3 prostate; T-47D breast.
Assay in all cases: NCI tumour cell line growth inhibition, 48 h

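How tested: cells in 96-well plates exposed to compound for 48 hours at five concentrations. The concentration for full growth arrest is given as TGI.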

Turning to `CC1(C2COC(=O)C2)SCCCS1` (configuration not stated), the TGI with A549 NSCLC, in the assay with HCT-116 colon, in the assay with HCT-15 colon, in the assay with HT29 colon, in the assay with KM12 colon and with LXFL 529 NSCLC was above 100 µM throughout. In addition, the TGI in the assay on M14 melanoma is above 100 µM; in the assay on NCI-H522 lung it was 10.9 µM; with OVCAR-4 ovarian, above 100 µM; in the assay with OVCAR-8 ovarian it was above 100 µM; in the assay on RXF 393 renal it was above 100 µM; in the assay with SF-295 CNS, above 100 µM. The TGI in the assay with SK-MEL-5 melanoma, in the assay on SN12C renal, in the assay on SNB-75 CNS and in the assay with SW-620 colon was above 100 µM throughout.
Consider `Cc1ccc(C2[C@H]3C(=O)N(c4ccc(Cc5ccc(N6C(=O)[C@@H]7ON(c8ccccc8)C(c8ccc(C)cc8)[C@@H]7C6=O)cc5)cc4)C(=O)[C@H]3ON2c2ccccc2)cc1` (some centres not stated), for which the TGI in the assay with A549 NSCLC, in the assay with HCT-15 colon, in the assay with HT29 colon, with KM12 colon, in the assay on LXFL 529 NSCLC and with M14 melanoma was above 100 µM each time. Moreover, the TGI in the assay on OVCAR-4 ovarian, with RPMI-8226 leukemia, with RXF 393 renal, in the assay with SF-295 CNS, in the assay with SK-MEL-5 melanoma and in the assay with SN12C renal was above 100 µM throughout. Besides, the TGI with SNB-75 CNS and with SW-620 colon was above 100 µM in each case.
`N#CC(C(=N/O)/C(=N\O)C(C#N)c1ccccc1)c1ccccc1` (configuration not stated): the TGI in the assay with A549 NSCLC, in the assay with HCT-116 colon, in the assay with HCT-15 colon, in the assay on HT29 colon, with KM12 colon and with LXFL 529 NSCLC was above 100 µM throughout. Moreover, the TGI in the assay with M14 melanoma, in the assay with NCI-H522 lung, in the assay on OVCAR-4 ovarian, with OVCAR-8 ovarian, in the assay on RPMI-8226 leukemia and in the assay on RXF 393 renal was above 100 µM in each case. The TGI with SF-295 CNS, in the assay with SK-MEL-5 melanoma, in the assay on SN12C renal, with SNB-75 CNS and in the assay with SW-620 colon was above 100 µM throughout.
In the case of `Cc1ccc(C)c(NC(=O)C(=O)C2C(=O)N(c3ccccc3)N=C2N)c1` (configuration not stated), the TGI in the assay on A549 NSCLC, in the assay with HCT-116 colon, in the assay with HCT-15 colon, with HT29 colon, in the assay with KM12 colon and in the assay on LXFL 529 NSCLC was above 100 µM throughout. The TGI in the assay with M14 melanoma, in the assay on NCI-H522 lung, in the assay with OVCAR-4 ovarian, in the assay on OVCAR-8 ovarian, in the assay with RPMI-8226 leukemia and in the assay with RXF 393 renal was above 100 µM each time. The TGI in the assay with SF-295 CNS, in the assay on SK-MEL-5 melanoma, in the assay with SN12C renal, in the assay with SNB-75 CNS and with SW-620 colon was above 100 µM throughout.
`N#Cc1c(N)nc(SCc2ccccc2)c(C#N)c1-c1ccc(O)cc1`: the TGI in the assay with A549 NSCLC was found to be 48.7 µM; with DU-145 prostate, 27.2 µM; in the assay with HCT-116 colon, 25.1 µM; in the assay on HCT-15 colon it was 30.4 µM; in the assay on HT29 colon, 23.1 µM; in the assay on KM12 colon it was 25.8 µM. Also, the TGI is 29.2 µM with M14 melanoma; 36.3 µM with NCI-H522 lung; 30.4 µM with OVCAR-4 ovarian; 30.7 µM in the assay on OVCAR-8 ovarian; 33.6 µM in the assay with PC-3 prostate; 29.8 µM in the assay with RPMI-8226 leukemia. The TGI in the assay on RXF 393 renal amounted to 45.1 µM; in the assay with SF-295 CNS it was 32.3 µM; with SK-MEL-5 melanoma, 27.1 µM; with SN12C renal it was 33.4 µM; in the assay with SNB-75 CNS it was 38.9 µM; with SW-620 colon it was 41.6 µM. Further, the TGI with T-47D breast came to 23.4 µM.
As for `COc1ccc(/C=N/N=C(\N)NO)cc1F`, the TGI was 85.6 µM in the assay on A549 NSCLC; above 100 µM in the assay with HCT-116 colon; above 100 µM in the assay with HCT-15 colon; 38.3 µM with HT29 colon; above 100 µM in the assay with KM12 colon; above 100 µM in the assay on LXFL 529 NSCLC. The TGI is 33.3 µM with M14 melanoma; 87.1 µM in the assay with NCI-H522 lung; above 100 µM in the assay on OVCAR-4 ovarian; above 100 µM in the assay on OVCAR-8 ovarian; above 100 µM in the assay with RPMI-8226 leukemia; 73.2 µM in the assay on RXF 393 renal. In addition, the TGI in the assay on SF-295 CNS is 87.6 µM; in the assay on SK-MEL-5 melanoma, 18.5 µM; in the assay with SN12C renal, above 100 µM; in the assay with SNB-75 CNS, 89.5 µM; in the assay on SW-620 colon, above 100 µM.
As for `CCCCCCCCCCCCCCCCCCOCC(C[N+]1(C)CCC(O)CC1)OCC` (configuration not stated), the TGI in the assay on A549 NSCLC came to 32.9 µM; in the assay on HCT-116 colon, 27.6 µM; in the assay on HT29 colon, 14.9 µM; with LXFL 529 NSCLC it was 11 µM; with M14 melanoma, 23.4 µM; with NCI-H522 lung it was 31 µM. Moreover, the TGI in the assay with OVCAR-4 ovarian turned out to be 18 µM; with OVCAR-8 ovarian, 41.4 µM; in the assay on RPMI-8226 leukemia, 11.5 µM; in the assay with SF-295 CNS, 17.9 µM; in the assay on SN12C renal it was 15.4 µM; in the assay with SNB-75 CNS it was 19.2 µM. Also, the TGI in the assay on SW-620 colon was found to be 35.5 µM.
As to `CC(=Nc1cccc(Cl)c1)c1ccncc1`, the TGI with A549 NSCLC, in the assay with DU-145 prostate, with HCT-116 colon, in the assay on HCT-15 colon, with HT29 colon and with KM12 colon was above 100 µM in each case. Also, the TGI with M14 melanoma, in the assay on NCI-H522 lung, in the assay on OVCAR-4 ovarian, in the assay on OVCAR-8 ovarian, with PC-3 prostate and in the assay with RPMI-8226 leukemia was above 100 µM throughout. In addition, the TGI in the assay on RXF 393 renal, in the assay with SF-295 CNS, in the assay with SK-MEL-5 melanoma, in the assay on SN12C renal, with SNB-75 CNS and in the assay on SW-620 colon was above 100 µM each time. Besides, in the assay on T-47D breast, the TGI is above 100 µM.
